{"source": "patent US7906488B2", "about": "“Sphingolipids in treatment and prevention of steatosis and of steatosis or of hepatotoxicity and its sequelae” (Nederlandse Organisatie Voor …, priority 2004, dated 2011)", "key": {"[1]": {"test_system": "APOE*3Leiden mice", "experiment": "Hepatic VLDL-TG production, apoB production and VLDL composition (Triton WR1339 method)", "type": "in vivo", "settings": "1% PS diet", "description": "Plasma parameters: Tail blood samples were collected in EDTA-coated cups, or in paraoxon-coated capillaries to prevent lipolysis as described in Zambon et al. 1993 (Zambon et al. 1993. J. Lipid Res. 34:1021-1028). Plasma lipid parameters were determined using commercial kits for total cholesterol (C) Chol R1 from Roche Diagnostics, Mannheim, Germany), non-esterified free fatty acids (FFA) (NEFA-C; Wako chemicals, Neuss, Germany), Total triglycerides (TG) (Triglyceride GPO-Trinder; Sigma, St. Louis, Mo.), β-hydroxybutyrate (β-HB; Sigma) and ALAT (Reflotron GPT; Roche). Serum amyloid A (SAA) was measured by ELISA (Biosource, Nivelles, Belgium) and fibrinogen by sandwich ELISA, as described in Koopman et al., 2005 (Koopman et al. 2005. Fibrinol Proteol 11:19). For lipoproteins fractionation, groupwise-pooled plasma was size-fractionated by fast protein liquid chromatography (FPLC) on a Superose 6 column (Äkta; Amersham Pharmacia Biotech, Uppsala, Sweden). Fractions were assayed for total C and TG as described. Hepatic VLDL-TG production: The rate of hepatic VLDL-TG production, de novo apoB secretion, and VLDL composition were determined in overnight-fasted mice. Mice were anaesthetized with vetranquil/fentanyl/midazolam i.p., and injected i.v. with 0.1 ml PBS containing 100 μCi Tran^35S-label™ (ICN Biomedicals, Irvine, Calif.) to measure the de novo apoB synthesis. After 30 min, the animals received a Triton WR1339 injection (Tyloxapol, Sigma; 500 mg/kg body weight in 100 μl saline) to prevent systemic lipolysis of newly-secreted hepatic VLDL-TG (Aalto-Setala et al. 1992. J. Clin. Invest 90:1889-1900.27) Blood samples were drawn at 0, 15, 30, 60, and 90 min after Triton WR1339 injection and plasma TG concentrations were determined. After 90 min, the animals were sacrificed and blood was collected by retro-orbital bleeding for isolation of VLDL. VLDL composition: VLDL particles (d<1.019) were separated from other lipoproteins in plasma by density gradient ultra-centrifugation, as described in Jong et al., 1996 (Jong et al. 1996. Arterioscler. Thromb. Vasc. Biol. 16:934-940). Protein content of the VLDL fraction was determined by Lowry's assay (Lowry et al., 1951. J. Biol. Chem. 193:265-275), and TG and total C were determined as described above. Phospholipids and free cholesterol were determined using standard commercial kits (Wako Chemicals, Neuss, Germany). The ^35S-apoB content of VLDL was measured after selective precipitation of apoB with isopropanol as described elsewhere (Li et al. 1996 J. Lipid Res. 37:210-220; Pietzsch et al. 1995. Biochim. Biophys. Acta 1254:77-88). In vivo clearance of VLDL-like TG-rich particles: To determine whether 1% PS accelerates the clearance of TG-rich lipoproteins from plasma, we used radiolabeled emulsion particles as a tool. VLDL-like emulsion particles containing 200 μCi of [^3H]triolein and 20 μCi of [^14C]cholesteryl oleate were prepared and characterized as described in Rensen et al. 1997 (Rensen et al., 1997. J. Lipid Res. 38:1070-1084). Fed mice were anaesthetized as described above and laparotomy was performed. […] After taking the last liver and blood sample, the remainder of the liver, heart, spleen, hind limb muscle, and gonadal, perirenal and intestinal white adipose tissues were harvested. Lipids were extracted overnight at 60° C. in 500 μL of Solvable™, and radioactivity was counted as described in Rensen et al., 1997 (supra). RNA isolation and RT-PCR: Livers from 4 h-fasted mice fed 1% PS-containing diet or control Western-type diet for 5 weeks were removed immediately after sacrifice, flushed with cold 0.9% NaCl and snap frozen in liquid nitrogen. Total RNA was isolated as described by Chomczynski and Sacchi (Chomczynski, P. and Sacchi, N. 1987. Anal. Biochem. 162:156-159) by use of RNA-Bee™ (Campro Scientific, Berlin, Germany). cDNA synthesis was performed according to Bloks et al (Bloks et al., 2001. J. Lipid Res. 42:41-50). […]"}, "[2]": {"test_system": "APOE*3Leiden mice", "experiment": "Liver lipid levels, liver appearance and liver histology", "type": "in vivo", "settings": "1% PS diet; for Fat deposits / lipid-filled vacuoles in liver cells (HPS-stained sections): compared to controls"}}, "data": [{"smiles": "CCCCCCCCCCCCCC[C@@H](O)[C@@H](O)[C@@H](N)CO", "note": "[PS, phytosphingosine]", "values": [{"measurement": "VLDL particle composition: phospholipid", "setting": "[1]; 5 weeks", "value": "7.57 ± 1.13", "unit": "μmol/mg VLDL protein"}, {"measurement": "VLDL particle composition: total cholesterol", "setting": "[1]; 5 weeks", "value": "11.94 ± 2.16", "unit": "μmol/mg VLDL protein"}, {"measurement": "VLDL particle composition: triglycerides", "setting": "[1]; 5 weeks", "value": "36.93 ± 7.17", "unit": "μmol/mg VLDL protein"}, {"measurement": "VLDL total cholesterol, % Δ vs control", "setting": "[1]; 5 weeks", "value": "−51", "unit": "%"}, {"measurement": "apoB production rate, % Δ vs control", "setting": "[1]; 5 weeks", "value": "did not differ and n.s."}, {"measurement": "VLDL-TG production rate", "setting": "[1]; 5 weeks, overnight-fasted", "value": "3.63 ± 0.52", "unit": "μmol TG/h"}, {"measurement": "apoB production rate", "setting": "[1]; 5 weeks, overnight-fasted", "value": "13.47 ± 2.45 ×10^4 dpm/ml/h"}, {"measurement": "Decrease of total C in VLDL particles vs control", "setting": "[1]; p<0.05", "value": 51, "unit": "%"}, {"measurement": "Liver cholesteryl ester, % Δ vs control", "setting": "[2]; 5 weeks", "value": "−61", "unit": "%"}, {"measurement": "Liver free cholesterol, % Δ vs control", "setting": "[2]; 5 weeks", "value": "−11", "unit": "%"}, {"measurement": "Liver triglycerides, % Δ vs control", "setting": "[2]; 5 weeks", "value": "−56", "unit": "%"}, {"measurement": "Liver cholesteryl ester", "setting": "[2]; 5 weeks, 4 h-fasted", "value": "5.20 ± 0.79", "unit": "μg/mg protein"}, {"measurement": "Liver free cholesterol", "setting": "[2]; 5 weeks, 4 h-fasted", "value": "6.95 ± 0.78", "unit": "μg/mg protein"}, {"measurement": "Liver triglycerides", "setting": "[2]; 5 weeks, 4 h-fasted", "value": "15.28 ± 3.84", "unit": "μg/mg protein"}, {"measurement": "Fat deposits / lipid-filled vacuoles in liver cells (HPS-stained sections)", "setting": "[2]", "value": "less lipid-filled vacuoles"}, {"measurement": "Fat deposits / lipid-filled vacuoles in liver cells (HPS-stained sections)", "setting": "[2]; listed as phytosphingosine", "value": "absence of such fat deposits"}, {"measurement": "Liver appearance at autopsy", "setting": "[2]; control livers enlarged and yellowish", "value": "of normal size, and had a dark-red appearance"}, {"measurement": "Decrease of liver Free C vs control", "setting": "[2]; p<0.05", "value": 11, "unit": "%"}, {"measurement": "Decrease of liver cholesteryl esters vs control", "setting": "[2]; p<0.05", "value": 61, "unit": "%"}]}]}
